The nature of test [1]: pH of saliva after ingesting citric acid. The following applies: 700 mg citric acid ingested. Type of test: in vivo, human. The procedure: Saliva is a kind of humors and, normally, has the pH of around 6.8. For the purpose of reference, to test the pH of the saliva of a person was carried out who had brushed before testing and ingesting 700 mg of citric acid. […]
Test [2] concerns mouse's leaching cell solution (abdominal cavity cells). Description: Drug depressing effect on histamine leaching when treated with 48/80 compound. The following applies: testing drug 100(mg/ml); for inhibition at 100000 µg/mL: Mus musculus, read-out: Depression rate (%); for inhibition at 100000 µg/mL / Depression rate (%): 48/80 compound-induced histamine release; for Histamine Releasing rate (%): 48/80 compound, control 90.5, blank 9.0. The class given is cell-based. As for the experimental part:
This is a comparative testing of drug depressing effect on the amount of leaching histamines when is treated with 48/80 (Sigma, St. MO, USA) compound.
(1). Preparation of leaching cell solution from mouse body.
A mouse is killed and bloodletting. Then 10 ml of Locke's solution containing 0.1% bovine serum protein is injected into its abdominal cavity. After abdominal cavity being light massaged, the cavity is cut and the Locke's solution is removed. Cavity is washed with another 5 ml of Locke's solution, and this washed solution is added to the late one. This combined solution is centrifuged at 600 rpm for 5 minutes. The sediments are washed with 5 ml of cool Locke's solution. Adding 3 ml of cold Locke's solution to the washed sediments, then a leached cell solution of abdominal cavity is obtained. The composition of Locke's solution is: NaCL […], KCL 0.2%, CaCL2 0.15%, glucose 1.0%, in w/v, and the rest distillated water.
(2). Drug depressing effect on the amount of leaching histamines when treated with 48/80 compound.
Each testing compound listed in the table 1 is dissolved in a Ringer's solution containing 1% NaHCO3, and then diluted with Locke's solution to the indicated concentration. 1.0 ml of each of those solutions in last term is mixed with 0.3 ml of mouse's leaching cell solution and 0.5 ml of Locke's solution. This mixture is cultivated at 37° C. for 5 minutes. Then adding 0.2 ml of Locke's solution of 48/80 compound (1 mg/100 ml) and cultivated at 37° C. for 10 minutes. Then the reaction is stopped by cooling, and centrifuged at 2,500 rpm for 10 minutes. 1.7 ml of decanted solution and 0.3 ml of sediments are obtained. 0.1 ml of water and 0.2 ml of 100% trichloroacetic acid are added to the decanted solution. 1.5 ml of Locke's solution and 0.2 ml of 100% trichloroacetic acid are added to the sediments washed solution. They are cultivated at room temperature for 30 minutes. After cultivation, the mixtures are centrifuged at 3,000 rpm for 15 minutes, respectively. 0.35 ml of each of the former two solutions is sampled. In each sample, 1.65 ml of water, 0.4 ml of 1N NaOH and 0.1 ml of 0.5% OPT (o-phthalic aldehyde) in methanol are added and cultivated at room temperature for 4 minutes. The reaction is stopped by adding 0.2 ml of 2M citric acid. And finally, determine the amount of released histamines in the tested solution by fluorescence method. By the analysis, results of the depression rate of histamines could be calculated.
Locke's solution is instead of each drug in control group, and instead of both drug and 48/80 compound solution in blank group. The histamine releasing rate (A) can be calculated by following equation. […] Where (Hs) is the total amount of histamine in the decanted solution, and (Hr) is the total amount of histamine in the sediment. (A)=[(Hs)/{(Hs)+(Hr)}]×100%. Then the depression rate is: =100−[(A−A in blank group)/(A−A in control group)]×100%.

The next test addresses xanthine oxidase. The test can be described thus: Inhibition of xanthine oxidase. The class given is biochemical. Particulars: xanthine oxidase 0.01 u/ml, xanthine 5×10^−5M, pH=7.4, UV 295 nm; read-out: IC50 (concentration for depression of 50% activity of oxidase). The procedure: The production process of peroxide free radical can be tested by Xanthine oxidase substrate in vito (Fridowich, I., J. Biol. Chem., 215, 4053˜4057, 1970). […] The test of inhibiting xanthine oxidase is carried out by the method of H. M. Kalckar (J. Biol. Chem., 167, 429˜443, 1947). The basic principle is xanthine being acted by xanthine oxidase to form uric acid that is quantitative analyzed by photometric method. By the amount of determined uric acid, is calculated the degree of inhibiting effect for the activity of xanthine oxidase.
The testing process is, adding a final concentration of 0.01 u/ml of xanthine oxidase in 1 cm cell of photometric apparatus, and adding 0.05M (pH=7.4) of phosphoric acid buffer or inhabitant The reaction time is counted from the point at adding xanthene's to a final concentration reaching 5×10^−5M. For reducing the error arose by absorption of liquid in photometric analysis, the compound of xanthine oxidase, xanthine and drug are boiled for the reference. UV selected at 295 nm, data are recorded at an interval of 30 seconds for 2 minutes. The unit of activity change of xanthine oxidase is 0.001M/min. Calculate the inhibiting rate for each addition amount of drug. To use drug concentration (M) as a function of inhibiting rate (%), and to trace the data on a log scale paper, the 50% depression rate of the oxidase (IC50) could be determined by regression line method.

Test [3] has as its system oxazolone-coated mouse ear. Description: Anti-delayed type allergy reaction (oxazolone ear inflammation). The class given is in vivo. The following applies: 1 mg/ear coated, ears weighed after 24 hr; for inhibition in vivo at 1 mg/ear: Mus musculus, topical, read-out: Depression rate (%). The procedure: The weights of testing mice are ranging from 20 g to 30 g. They are coated with 0.1 ml of oxazolone alcohol solution (0.5 w/v %) on the hair cleaned part of abdomen. After five days, each of the listed drugs is dissolved in oxazolone acetone solution (0.5 w/v %), and 10 μl each of the solutions is token by micro pipette to coat on both sides of the right ear. After 24 hr, the mouse is killed by ether and punched a circle area of a diameter of 5.5 mm on both right and left ears in corresponding part by a puncher machine (portions of drug coated and the blank). The punched portions are weighed and the inflammation rates calculated. The control group are coated only with the oxazolone acetone solution (0.5 w/v %). The inflammation depressing rates of each drug are calculated by following equation: Inflammation depressing rate(%)=[(weight of drug coated right ear)−(weight of non-drug-coated left ear)]×100%/(weight of non-drug-coated left ear)

Structures can show the parent of a compound that is named as a salt.

xanthine oxidase, sequence (P47989 whole entry, species assumed): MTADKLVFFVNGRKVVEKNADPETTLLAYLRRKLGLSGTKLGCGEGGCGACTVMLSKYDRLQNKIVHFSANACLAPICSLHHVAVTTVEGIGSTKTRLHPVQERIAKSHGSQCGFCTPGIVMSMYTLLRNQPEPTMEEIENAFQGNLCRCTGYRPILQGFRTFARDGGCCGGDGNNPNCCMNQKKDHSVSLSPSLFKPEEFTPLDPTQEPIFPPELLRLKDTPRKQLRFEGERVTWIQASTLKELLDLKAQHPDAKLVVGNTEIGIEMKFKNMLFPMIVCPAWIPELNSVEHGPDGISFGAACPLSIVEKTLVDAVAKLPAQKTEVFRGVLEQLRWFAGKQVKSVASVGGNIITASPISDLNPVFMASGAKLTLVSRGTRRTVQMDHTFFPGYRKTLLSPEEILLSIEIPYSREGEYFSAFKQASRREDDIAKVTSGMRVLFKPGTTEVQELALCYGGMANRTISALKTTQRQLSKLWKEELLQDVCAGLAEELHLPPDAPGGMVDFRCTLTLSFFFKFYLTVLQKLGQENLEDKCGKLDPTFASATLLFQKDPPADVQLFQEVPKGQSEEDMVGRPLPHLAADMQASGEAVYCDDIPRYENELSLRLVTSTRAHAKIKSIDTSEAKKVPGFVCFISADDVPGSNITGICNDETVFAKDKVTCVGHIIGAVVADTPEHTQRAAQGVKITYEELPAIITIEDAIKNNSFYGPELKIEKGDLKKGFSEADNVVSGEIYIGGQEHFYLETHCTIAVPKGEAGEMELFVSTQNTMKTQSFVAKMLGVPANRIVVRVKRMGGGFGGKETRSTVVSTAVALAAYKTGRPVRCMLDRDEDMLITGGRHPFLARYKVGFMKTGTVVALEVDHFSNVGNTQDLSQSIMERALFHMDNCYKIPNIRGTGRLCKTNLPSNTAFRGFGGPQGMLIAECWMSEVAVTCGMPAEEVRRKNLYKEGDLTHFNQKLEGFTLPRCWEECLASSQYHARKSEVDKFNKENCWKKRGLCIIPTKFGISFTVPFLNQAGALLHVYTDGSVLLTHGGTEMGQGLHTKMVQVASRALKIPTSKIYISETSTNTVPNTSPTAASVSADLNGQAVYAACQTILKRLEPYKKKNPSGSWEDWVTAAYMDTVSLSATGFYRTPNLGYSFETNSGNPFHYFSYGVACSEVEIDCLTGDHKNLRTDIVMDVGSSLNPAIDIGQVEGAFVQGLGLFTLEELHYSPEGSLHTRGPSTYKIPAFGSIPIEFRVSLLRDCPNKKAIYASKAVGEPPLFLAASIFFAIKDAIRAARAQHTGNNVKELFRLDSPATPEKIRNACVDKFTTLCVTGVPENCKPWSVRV

As to `O=C(O)CC(O)(CC(=O)O)C(=O)O` [Citric acid], the “pH value of saliva” value in test [1] (testing time 0 minute) stood at 6.8; in test [1] (testing time 20 minute) it was 6.45; in test [1] (testing time 60 minute), 6.26; in test [1] (testing time 90 minute), 6.6; in test [1] (testing time 120 minute), 6.8. Besides, the inhibition at 100000 µg/mL in test [2] turned out to be 100%. Moreover, the “Histamine Releasing rate (%)” value in test [2] was found to be 8.7%. Besides, at xanthine oxidase, the IC50 is 100 nM. Further, in test [3], the inhibition in vivo at 1 mg/ear came to 100%.
Consider `CN(C)CCOC(c1ccccc1)c1ccccc1` [Diphenhydramine hydrochloride, reference compound], for which, in test [2], the inhibition at 100000 µg/mL is 32.1% and the “Histamine Releasing rate (%)” value worked out at 64.7%. The inhibition in vivo at 1 mg/ear in test [3] is 20%.
Turning to `Nc1nc2ncc(CNc3ccc(C(=O)N[C@@H](CCC(=O)O)C(=O)O)cc3)nc2c(=O)[nH]1` [Folic acid, reference compound], the IC50 on xanthine oxidase came out at 662 nM.
As for `O=C(O)/C=C/C(=O)O` [Fumaric acid], in test [2], the inhibition at 100000 µg/mL worked out at 100% and the “Histamine Releasing rate (%)” value is 8.9%. Also, the IC50 at xanthine oxidase came out at 101 nM. In test [3], the inhibition in vivo at 1 mg/ear was determined as 98%.
With `CC(O)C(=O)O` (stereo not drawn) [Lactic acid], in test [2], the inhibition at 100000 µg/mL was found to be 100% and the “Histamine Releasing rate (%)” value was determined as 8.9%. The inhibition in vivo at 1 mg/ear in test [3] was determined as 97%.
Regarding `O=C(O)CC(O)C(=O)O` (stereo not drawn) [Malic acid], in test [2], the inhibition at 100000 µg/mL is 100% and the “Histamine Releasing rate (%)” value amounted to 9.0%. The IC50 on xanthine oxidase was 112 nM. The inhibition in vivo at 1 mg/ear in test [3] was 96%.
Consider `O=C(O)C(O)C(O)C(=O)O` (stereo not drawn) [Tartaric acid], for which, in test [2], the inhibition at 100000 µg/mL turned out to be 100% and the “Histamine Releasing rate (%)” value came to 8.9%. The IC50 on xanthine oxidase was 102 nM. In addition, the inhibition in vivo at 1 mg/ear in test [3] was determined as 97%.
As to `CC1(C)[C@@H](O[C@H]2O[C@H](C(=O)[O-])[C@@H](O)[C@H](O)[C@H]2O[C@@H]2O[C@H](C(=O)[O-])[C@@H](O)[C@H](O)[C@H]2O)CC[C@]2(C)[C@H]3C(=O)C=C4[C@@H]5C[C@@](C)(C(=O)[O-])CC[C@]5(C)CC[C@@]4(C)[C@]3(C)CC[C@@H]12.[Na+].[Na+].[Na+]` [Trisodium glycyrrhizinate, reference compound], in test [2], the “Depression rate (%)” value is listed as 30.9% and the “Histamine Releasing rate (%)” value is given as 65.5%.
On to `O=C1O[C@H](CO)[C@@H](O)[C@H](O)[C@H]1O` [gluconolactone], for which, in test [2], the inhibition at 100000 µg/mL was 100% and the “Histamine Releasing rate (%)” value amounted to 8.9%. In addition, the inhibition in vivo at 1 mg/ear in test [3] turned out to be 97%.
Regarding `O=C(O)CO` [α-hydroxy ethanoic acid], in test [2], the “Depression rate (%)” value turned out to be 100% and the “Histamine Releasing rate (%)” value came out at 9.0%. The “Depression rate (%)” value in test [3] turned out to be 98%.
Consider `CCCCCCC(O)C(=O)O` (stereo not drawn) [α-hydroxy octanoic acid], for which, in test [2], the inhibition at 100000 µg/mL is 100% and the “Histamine Releasing rate (%)” value came to 9.0%. Also, in test [3], the inhibition in vivo at 1 mg/ear was determined as 94%.

Source of the values: patent US20060251703A1, “Composition comprising an edible acid or its acidic salt and the use thereof” (priority 2003, published 2006).
